Results published in US7405205B2, “Antitumor antisense sequences directed against R1 and R2 components of ribonucleotide reductase” (Lorus Therapeutics Inc., priority 1996, dated 2008).
Strand notation (5' to 3'): a small letter for the sugar, then the base; units joined by * are phosphorothioate-linked, units joined directly phosphodiester-linked; [ ] holds rarer units or linkages, { } end groups; capitals alone tell only the bases. d = 2'-deoxy (DNA)

Tests used:
Type in all cases: cell-based, human
[1] = test system: PC-3 prostrate cell adenocarcinoma; assay: Relative colony forming efficiency after antisense treatment (Table 13); details: 0.2 μM antisense oligodeoxyribonucleotide phosphorothioate; PC-3 cells; averages of 2-8 determinations
[2] = test system: MIA PaCa-2 pancreatic cell carcinoma; assay: as above; details: 0.2 μM antisense oligodeoxyribonucleotide phosphorothioate; MIA PaCa-2 cells; averages of 2-8 determinations
[3] = test system: MDA-MB-231 breast cell adenocarcinoma; assay: Relative colony forming efficiency after antisense treatment (Table 13, FIG. 11, FIG. 12); details: 0.2 μM antisense oligodeoxyribonucleotide phosphorothioate; MDA-MB-231 cells; averages of 2-8 determinations
Method: Colony forming efficiency was determined as previously reported [Huang and Wright, 1994]. The cells were cultured for 24 hours at 37° C. in growth medium with 10% fetal bovine serum. The cells were washed in 5 ml phosphate buffered saline, pH 7.2, once prior to lipofectin+/−oligonucleotide treatment.
The oligonucleotides being tested were added to cell cultures in the presence of 2.5 μg of DOTMA/DOPE (Lipofectin; Life Technologies, Inc.) for four hours. The oligonucleotide was tested at 0.2 μM unless otherwise indicated. Controls were the cultures treated with lipofectin but without the oligonucleotide. After 4 hours the medium containing the oligonucleotide was removed and washed with 5 ml of growth medium. The cells were then cultured in growth medium containing 10% fetal bovine serum for seven to ten days. Surviving cells were visualized by methylene blue staining, and colonies were scored. In some experiments cell aliquotes were removed from the culture and viability was determined using the trypan blue exclusion test [Phillips, 1973]. Results were analyzed as percent of surviving cells compared to control cells.
To test the antisense effects of many of these sequences as phosphorthioate deoxyribonucleotides, they were examined in relative colony forming experiments performed with a series of human tumor cell lines. Many of these antisense constructs, as predicted, are potent inhibitors of human tumor cell proliferation. For results obtained with cancer cells derived from the bladder, breast, lung, colon, pancreas, prostate, liver and cervix, see Table 13. In addition, in vivo studies with AS-II-626-20 were undertaken in C3H/HeN mice as reported in Table 14 and show a significant reduction in metastasis in the antisense treated mice.
Colony forming ability of MDA-MB-231 human breast cancer cells treated with 28 different antisense oligonucleotides was estimated as previously described (Choy et al., 1988). Aliquots of cell suspension were seeded into 60 mm Petri dishes and incubated at 37° C. overnight in α-MEM medium supplemented with 10% fetal bovine serum. Cells were washed in 5 ml of phosphate buffered saline, pH 7.2, prior to 0.2 μM antisense/lipofectin treatments for 4 hours. The media containing the antisense oligonucleotides were removed and cells were washed once and cultured in growth medium for 7 to 10 days. Colonies were stained with methylene blue and scored as described (Choy et al., 1988; Huang and Wright 1994). Percent inhibition was calculated by comparison with the number of colonies present in cultures grown in the absence of antisense oligonucleotides. All experiments were performed in quadruplicate. FIG. 11 is a graph of the percentage inhibition of colony formation by treatment with the various antisense oligonucleotides.
Colony forming ability of various human tumor cell lines was estimated by determining relative colony forming efficiencies (Choy et al., 1988). Cells from various cell lines were washed in 5 ml of phosphate buffered saline, pH 7.2. The cells were treated with 0.2 μM AS-I-618-20 antisense oligonucleotide/lipofectin for 4 hours. The medium containing the antisense oligonucleotide was then removed and the cells were gently washed with 5 ml of growth medium. The cells were cultured in growth medium containing 10% fetal bovine serum for seven to ten days. […] The following human tumor cell lines were evaluated: HepG2 (liver), SK-OV-3 (ovary), U87 (brain), A2058 (melanoma), H460 (lung), MDA-MB-231 (breast) and AsPC-1 (pancreas).

[4] = test system: T24 bladder cell carcinoma; assay: Relative colony forming efficiency after antisense treatment (Table 13); details: 0.2 μM antisense oligodeoxyribonucleotide phosphorothioate; T24 cells; averages of 2-8 determinations
A549 lung cell carcinoma = assay: as above; details: 0.2 μM antisense oligodeoxyribonucleotide phosphorothioate; A549 cells; averages of 2-8 determinations
[5] = test system: HepG2 hepatocellular carcinoma; assay: Relative colony forming efficiency after antisense treatment (Table 13, FIG. 12); details: 0.2 μM antisense oligodeoxyribonucleotide phosphorothioate; HepG2 cells; averages of 2-8 determinations
[6] = test system: HCT116 colon cell carcinoma; assay: Relative colony forming efficiency after antisense treatment (Table 13); details: 0.2 μM antisense oligodeoxyribonucleotide phosphorothioate; HCT116 cells; averages of 2-8 determinations

AAACGGCTTCTCACACATAT (antisense; DNA, all phosphorothioate, methylation of C not given here) [AS-II-2151-20]
Reduced relative colony forming efficiency, expressed as % inhibition, PC-3 [1]: 84.86%
Reduced relative colony forming efficiency, expressed as % inhibition, MIA PaCa-2 [2]: 62.15%
Reduced relative colony forming efficiency, expressed as % inhibition, MDA-MB-231 [3]: 95.14%
Reduced relative colony forming efficiency, expressed as % inhibition, T24 [4]: 79.83%
Reduced relative colony forming efficiency, expressed as % inhibition, A549 (A549 lung cell carcinoma): 79.19%

AACCGGAAAAGAAAATGCCT (antisense; DNA, all phosphorothioate, methylation of C not given here) [AS-II-890-20]
Reduced relative colony forming efficiency, expressed as % inhibition, PC-3 [1]: 87.93%
Reduced relative colony forming efficiency, expressed as % inhibition, MIA PaCa-2 [2]: 66.02%
Reduced relative colony forming efficiency, expressed as % inhibition, MDA-MB-231 [3]: 88.2%
Reduced relative colony forming efficiency, expressed as % inhibition, T24 [4]: 82.07%
Reduced relative colony forming efficiency, expressed as % inhibition, A549 (A549 lung cell carcinoma): 81.6%

ACCCTTCCCATTGGCTGCGC (dA*dC*dC*dC*dT*dT*dC*dC*dC*dA*dT*dT*dG*dG*dC*dT*dG*dC*dG*dC; antisense) [AS-II-6-20]
Reduced relative colony forming efficiency, expressed as % inhibition, PC-3 [1]: 89.21%
Reduced relative colony forming efficiency, expressed as % inhibition, MIA PaCa-2 [2]: 95.15%
Reduced relative colony forming efficiency, expressed as % inhibition, HepG2 [5]: 97.89%
Reduced relative colony forming efficiency, expressed as % inhibition, MDA-MB-231 [3]: 88.4%
Reduced relative colony forming efficiency, expressed as % inhibition, T24 [4]: 73.85%

ATTAAAATCTGCGTTGAAGC (DNA, all phosphorothioate, methylation of C not given here) [AS-II-1700-20]
Reduced relative colony forming efficiency, expressed as % inhibition, PC-3 [1]: 90.63%
Reduced relative colony forming efficiency, expressed as % inhibition, MIA PaCa-2 [2]: 34.52%
Reduced relative colony forming efficiency, expressed as % inhibition, MDA-MB-231 [3]: 30.75%
Reduced relative colony forming efficiency, expressed as % inhibition, T24 [4]: 70.94%
Reduced relative colony forming efficiency, expressed as % inhibition, A549 (A549 lung cell carcinoma): 77.28%

CACACAACCTACTTACACCA (antisense; DNA, all phosphorothioate, methylation of C not given here) [AS-II-2372-20]
Reduced relative colony forming efficiency, expressed as % inhibition, PC-3 [1]: 86.06%
Reduced relative colony forming efficiency, expressed as % inhibition, MIA PaCa-2 [2]: 94.36%
Reduced relative colony forming efficiency, expressed as % inhibition, HCT116 [6]: 64.7%
Reduced relative colony forming efficiency, expressed as % inhibition, MDA-MB-231 [3]: 90.09%
Reduced relative colony forming efficiency, expressed as % inhibition, T24 [4]: 61.13%
Reduced relative colony forming efficiency, expressed as % inhibition, A549 (A549 lung cell carcinoma): 96.41%

CAGAATATCGACGCAAAAGA (antisense; DNA, all phosphorothioate, methylation of C not given here) [AS-II-909-20]
Reduced relative colony forming efficiency, expressed as % inhibition, PC-3 [1]: 84.86%
Reduced relative colony forming efficiency, expressed as % inhibition, MIA PaCa-2 [2]: 46.13%
Reduced relative colony forming efficiency, expressed as % inhibition, MDA-MB-231 [3]: 45.96%
Reduced relative colony forming efficiency, expressed as % inhibition, T24 [4]: 78.57%
Reduced relative colony forming efficiency, expressed as % inhibition, A549 (A549 lung cell carcinoma): 78.68%

GACATCACTCCCATCCTCTG (DNA, all phosphorothioate, methylation of C not given here) [AS-II-1302-20]
Reduced relative colony forming efficiency, expressed as % inhibition, PC-3 [1]: 79.01%
Reduced relative colony forming efficiency, expressed as % inhibition, MIA PaCa-2 [2]: 23.86%
Reduced relative colony forming efficiency, expressed as % inhibition, HCT116 [6]: 71.98%
Reduced relative colony forming efficiency, expressed as % inhibition, MDA-MB-231 [3]: 92.2%
Reduced relative colony forming efficiency, expressed as % inhibition, T24 [4]: 70.56%
Reduced relative colony forming efficiency, expressed as % inhibition, A549 (A549 lung cell carcinoma): 93.17%

GGCCCAGATCACCCCTAAAT (antisense; DNA, all phosphorothioate, methylation of C not given here) [AS-II-2128-20]
Reduced relative colony forming efficiency, expressed as % inhibition, PC-3 [1]: 88.89%
Reduced relative colony forming efficiency, expressed as % inhibition, MIA PaCa-2 [2]: 39.23%
Reduced relative colony forming efficiency, expressed as % inhibition, MDA-MB-231 [3]: 91.3%
Reduced relative colony forming efficiency, expressed as % inhibition, T24 [4]: 83.74%
Reduced relative colony forming efficiency, expressed as % inhibition, A549 (A549 lung cell carcinoma): 87.31%

TATCGCCGCCGTGAGTACAA (DNA, all phosphorothioate, methylation of C not given here) [AS-II-1768-20]
Reduced relative colony forming efficiency, expressed as % inhibition, PC-3 [1]: 86.36%
Reduced relative colony forming efficiency, expressed as % inhibition, MIA PaCa-2 [2]: 60.36%
Reduced relative colony forming efficiency, expressed as % inhibition, MDA-MB-231 [3]: 91.56%
Reduced relative colony forming efficiency, expressed as % inhibition, T24 [4]: 74.56%
Reduced relative colony forming efficiency, expressed as % inhibition, A549 (A549 lung cell carcinoma): 86.8%

TCGCCTACTCTCTTCTCAAA (DNA, all phosphorothioate, methylation of C not given here) [AS-II-1278-20]
Reduced relative colony forming efficiency, expressed as % inhibition, PC-3 [1]: 85.31%
Reduced relative colony forming efficiency, expressed as % inhibition, MIA PaCa-2 [2]: 57.05%
Reduced relative colony forming efficiency, expressed as % inhibition, MDA-MB-231 [3]: 90.68%
Reduced relative colony forming efficiency, expressed as % inhibition, T24 [4]: 65.42%

TGCCTCCGACCCTTCCCATT (antisense dT*dG*dC*dC*dT*dC*dC*dG*dA*dC*dC*dC*dT*dT*dC*dC*dC*dA*dT*dT) [AS-II-14-20]
Reduced relative colony forming efficiency, expressed as % inhibition, PC-3 [1]: 92.76%
Reduced relative colony forming efficiency, expressed as % inhibition, MIA PaCa-2 [2]: 47.93%
Reduced relative colony forming efficiency, expressed as % inhibition, HepG2 [5]: 88.4%
Reduced relative colony forming efficiency, expressed as % inhibition, MDA-MB-231 [3]: 91.24%
Reduced relative colony forming efficiency, expressed as % inhibition, T24 [4]: 77.59%

TGGCACCAACTGACTAATAT (antisense; DNA, all phosphorothioate, methylation of C not given here) [AS-II-1976-20]
Reduced relative colony forming efficiency, expressed as % inhibition, PC-3 [1]: 88.16%
Reduced relative colony forming efficiency, expressed as % inhibition, MDA-MB-231 [3]: 89.6%

TGGCTGTGCTGGTTAAAGGA (DNA, all phosphorothioate, methylation of C not given here) [AS-II-1659-20]
Reduced relative colony forming efficiency, expressed as % inhibition, PC-3 [1]: 81.56%
Reduced relative colony forming efficiency, expressed as % inhibition, MIA PaCa-2 [2]: 42.54%
Reduced relative colony forming efficiency, expressed as % inhibition, MDA-MB-231 [3]: 42.86%
Reduced relative colony forming efficiency, expressed as % inhibition, T24 [4]: 74.09%
Reduced relative colony forming efficiency, expressed as % inhibition, A549 (A549 lung cell carcinoma): 54.7%

TTAGTGGTCAGGAGAATGTA (antisense; DNA, all phosphorothioate, methylation of C not given here) [AS-II-1819-20]
Reduced relative colony forming efficiency, expressed as % inhibition, PC-3 [1]: 85.46%
Reduced relative colony forming efficiency, expressed as % inhibition, MIA PaCa-2 [2]: 20.02%
Reduced relative colony forming efficiency, expressed as % inhibition, HepG2 [5]: 83.89%
Reduced relative colony forming efficiency, expressed as % inhibition, MDA-MB-231 [3]: 90.68%
Reduced relative colony forming efficiency, expressed as % inhibition, T24 [4]: 53.74%

TTCATGGTGTGGCTAGTTGG (DNA, all phosphorothioate, methylation of C not given here) [AS-II-1438-20]
Reduced relative colony forming efficiency, expressed as % inhibition, PC-3 [1]: 83.96%
Reduced relative colony forming efficiency, expressed as % inhibition, MIA PaCa-2 [2]: 42.13%
Reduced relative colony forming efficiency, expressed as % inhibition, MDA-MB-231 [3]: 69.06%
Reduced relative colony forming efficiency, expressed as % inhibition, T24 [4]: 43.7%
Reduced relative colony forming efficiency, expressed as % inhibition, A549 (A549 lung cell carcinoma): 51.27%

TTTTAACTGGCTGTGCTGGT (DNA, all phosphorothioate, methylation of C not given here) [AS-II-1666-20]
Reduced relative colony forming efficiency, expressed as % inhibition, PC-3 [1]: 86.06%
Reduced relative colony forming efficiency, expressed as % inhibition, MIA PaCa-2 [2]: 49.72%
Reduced relative colony forming efficiency, expressed as % inhibition, MDA-MB-231 [3]: 26.71%
Reduced relative colony forming efficiency, expressed as % inhibition, T24 [4]: 71.71%
Reduced relative colony forming efficiency, expressed as % inhibition, A549 (A549 lung cell carcinoma): 54.82%
